# Key:
# [1] = test system: collagen-induced arthritis (CIA); assay: CIA model, joint histopathology; type: in vivo, female DBA/1 mice
# Method: Tissues were also stained with Safranin-O to detect matrix degeneration and this information was used for scoring. The data in the figure represents mean±SEM, statistics were performed using Prism® software and 2-way ANOVA analysis, *p<0.05, **p<0.01, ***p<0.001. H&E and safranin-O stained paraffin wax embedded carpus and tarsus sections were scored by a board certified, independent pathologist for the criteria described in the materials and methods. Tabulated data represent mean±SD values for the tarsus only. Statistics were performed using 2-way ANOVA analysis, *p<0.05; **p<0.01; ***p<0.001, N=5 mice per group tested. At the end of each experiment, front and hind paws (including carpus and tarsus) were removed from the body of the animal for histological analysis. Skin from the ends of the digits was removed and the metatarsal region skin perforated using surgical scissors to allow full decalcification. Samples followed a decalcification procedure using formic acid as described elsewhere [21, 22]. After 7-10 days of decalcification, samples were washed for 2 hours in distilled water and stored in 70% ethanol at 4° C. until ready to be processed. Samples were paraffin embedded, sectioned and stained with Hematoxylin and Eosin (H&E) stain, also Safranin-O for matrix degradation (images not shown, used by pathologist for scoring). All histology work was performed at the Wistar Institute (Philadelphia, Pa.). […] A total of five mice from each group were analyzed via histopathology, 10× representative images are shown for each group tested.
# [2] = test system: collagen-antibody-induced arthritis (CAIA); assay: Collagen-antibody-induced arthritis (CAIA) model, paw size and clinical score; type: in vivo, female DBA/1 mice; details: 55 mg/kg p.o. b.i.d., day 13
# Method: Female DBA/1 mice were injected i.v. (intravenous) with purified anti-collagen type II antibodies, then given 25 μg of LPS (lipopolysaccharide), i.p. (intraperitoneal), three days later to induce arthritis by day 5. Mice that met the arthritis criteria score of 1 per paw were entered into the study. Compound A was administered orally, b.i.d. (twice daily), for all doses tested; Dex (Dexamethasone) was administered at 1.5 mg/kg three times a week, i.p.; and vehicle (PEG400+1% DMSO) was administered orally.
# Anti-collagen type II antibody was delivered to mice i.v. and oral administration of Compound A was initiated upon meeting minimum score requirements and entry into dosage groups. Compound A was administered at 10, 30 or 55 mg/kg p.o. twice daily for two weeks total. Vehicle groups were treated with PEG400 in 1% DMSO; dexamethasone (Dex) was used as a glucocorticoid standard of care reference. Dex was given i.p. in saline alone, three times a week (every 48 hours) at 1.5 mg/kg of total body mass.
# Acclimated mice were randomized, pre-bled and measured for baseline inflammation before any studies were initiated. On day 0, DBA/1 female mice were injected i.v. with 100 μl of a saline solution containing 1.5 mg of a 10 mg/ml cocktail of arthritogenic monoclonal antibodies directed against different epitopes of collagen type II (Chondrex, Redmond, Wash.) suspended in saline. […]
# [3] = test system: collagen-antibody-induced arthritis (CAIA); assay: CAIA model, joint histopathology scores; type: in vivo, female DBA/1 mice; details: compared to vehicle controls
# Method: Tissues were also stained with Safranin-O to evaluate matrix degeneration. Five representative mice from each group were sent for histological analysis and graded according to a scoring method described herein. The data in the figures represent mean±SEM, all statistics were performed using Prism® software and 2-way ANOVA analysis. H&E and Safranin-O stained paraffin wax embedded carpus and tarsus sections were scored by a board certified, independent pathologist for the criteria described in the materials and methods. Tabulated data represent mean±SD (standard deviation) values for the tarsus only. Statistics were performed using 2-way ANOVA analysis, *p<0.05; **p<0.01; ***p<0.001, N=5 mice per group tested. At the end of each experiment, front and hind paws (including carpus and tarsus) were removed from the body of the animal for histological analysis. Skin from the ends of the digits was removed and the metatarsal region skin perforated using surgical scissors to allow full decalcification. […] After 7-10 days of decalcification, samples were washed for 2 hours in distilled water and stored in 70% ethanol at 4° C. until ready to be processed. […] A total of five mice from each group were analyzed via histopathology, 10× representative images are shown for each group tested.
# [4] = test system: collagen-induced arthritis (CIA); assay: Collagen-induced arthritis (CIA) model, paw size and clinical score; type: in vivo, female DBA/1 mice
# Method: Female DBA/1 mice were injected with purified collagen type II in CFA i.d. (intradermal), then boosted with collagen type II in IFA, s.c., (subcutaneous) on day 21 followed by a day 28 LPS injection i.p. to induce arthritis (CIA). Mice that scored a ‘1’ or better for each paw were considered arthritic and entered into the study. Treatments started after 7-10 days of arthritis induction. Compound A was provided orally, b.i.d., for all doses tested; Dex was administered i.p. at 1.5 mg/kg, three times a week; and vehicle (PEG400+1% DMSO) was provided orally, b.i.d.
# Compound A was then tested in a more physiologic and progressive disease model of RA (i.e., collagen-induced arthritis (CIA) model). […] Early model optimization studies consistently generated robust collagen-induced-arthritis phenotypes that were absent from control treated, non-diseased, animals. CIA arthritic animals were separated into groups and treated with Compound A at 30, 55 and 100 mg/kg doses b.i.d, p.o.; vehicle or the standard-of-care reference drug, Dex at 1.5 mg/kg, which were administered as described above. […] The faster onset of swelling reduction noted for the 100 mg/kg treatment group may be explained by differences in the mechanism of action of Compound A.
# Acclimated mice were randomized and pre-bled and measured for baseline inflammation before any studies were initiated. On day 0, DBA/1 female mice were given a primary immunization with equal volumes of bovine type II collagen (CII), 2 mg/ml stock in 0.05 M acetic acid, (Chrondrex, Redmond, Wash.) suspended in CFA, 5 mg/ml (Chondrex, Redmond, Wash.) emulsion yielding an injection of 100 μg of CII at 100 μl into the base of the tail intradermally (i.d.). At day 21 post primary immunization, mice were re-challenged with CII emulsified in Incomplete Freund's Adjuvant (IFA) (Thermo Scientific, Rockford, Ill.) s.c. on the flank of the mouse. On day 28 each mouse received an i.p. injection of E. coli 0111:B4 LPS (0.5 mg/ml stock) (Chondrex, Redmond, Wash.) at 10 μg in 100 μl of saline (25-50 μg of LPS was reduced to 10 μg per mouse to reduce mortality associated with endotoxic shock). Around day 35 the mice begin to show signs of paw inflammation and disease. Before starting treatment mice were randomized, grouped, scored, ear tagged and pre-bled to determine baseline disease. […] Arthritis clinical scores were the same as that used to score the CAIA model (see CAIA methods). Vehicle consisted of PEG400 plus 1% DMSO given orally, twice daily (b.i.d). […] All samples were kept at −80° C. until ready to assay. At about day 60 mice were harvested for spleen, plasma and arthritic paws for STAT and cytokine quantitation and histological analysis.
# [5] = CAIA model, total body mass; type: in vivo, female DBA/1 mice; details: all doses
# Method: FIG. 3E: Depicts the effect of treatment on total body mass in a CAIA model
# Acclimated mice were randomized, pre-bled and measured for baseline inflammation before any studies were initiated. On day 0, DBA/1 female mice were injected i.v. with […] of a saline solution containing 1.5 mg of a 10 mg/ml cocktail of arthritogenic monoclonal antibodies directed against different epitopes of collagen type II (Chondrex, Redmond, Wash.) suspended in saline. On day 3, mice were injected with 100 μl of 50 μg of E. coli 0111:B4 LPS (0.5 mg/ml stock) (Chondrex, Redmond, Wash.) i.p. and provided with gel food during recovery. Two days post-LPS treatment monitoring of arthritic paws began; peak arthritis usually occurred 2-3 days following LPS treatment. […] Arthritis clinical score tables can be found described elsewhere. […] All samples were kept at −80° C. until ready to assay. At about 4 weeks, mice were harvested for spleen, serum and arthritic paws for STAT and cytokine quantitation and histological analysis. […]
# [6] = target: EGFR (Homo sapiens, UniProt P00533); assay: Kinase profiling panel, EGFR; type: binding; details: 1 μM
# Method: The ability of Compound A to inhibit other members of the kinome was also assessed using binding assays for a panel of 402 kinases [25].
# [7] = CIA, 30, 55 and 100 mg/kg b.i.d. p.o.
# EGFR, sequence (P00533 25-1210, species assumed): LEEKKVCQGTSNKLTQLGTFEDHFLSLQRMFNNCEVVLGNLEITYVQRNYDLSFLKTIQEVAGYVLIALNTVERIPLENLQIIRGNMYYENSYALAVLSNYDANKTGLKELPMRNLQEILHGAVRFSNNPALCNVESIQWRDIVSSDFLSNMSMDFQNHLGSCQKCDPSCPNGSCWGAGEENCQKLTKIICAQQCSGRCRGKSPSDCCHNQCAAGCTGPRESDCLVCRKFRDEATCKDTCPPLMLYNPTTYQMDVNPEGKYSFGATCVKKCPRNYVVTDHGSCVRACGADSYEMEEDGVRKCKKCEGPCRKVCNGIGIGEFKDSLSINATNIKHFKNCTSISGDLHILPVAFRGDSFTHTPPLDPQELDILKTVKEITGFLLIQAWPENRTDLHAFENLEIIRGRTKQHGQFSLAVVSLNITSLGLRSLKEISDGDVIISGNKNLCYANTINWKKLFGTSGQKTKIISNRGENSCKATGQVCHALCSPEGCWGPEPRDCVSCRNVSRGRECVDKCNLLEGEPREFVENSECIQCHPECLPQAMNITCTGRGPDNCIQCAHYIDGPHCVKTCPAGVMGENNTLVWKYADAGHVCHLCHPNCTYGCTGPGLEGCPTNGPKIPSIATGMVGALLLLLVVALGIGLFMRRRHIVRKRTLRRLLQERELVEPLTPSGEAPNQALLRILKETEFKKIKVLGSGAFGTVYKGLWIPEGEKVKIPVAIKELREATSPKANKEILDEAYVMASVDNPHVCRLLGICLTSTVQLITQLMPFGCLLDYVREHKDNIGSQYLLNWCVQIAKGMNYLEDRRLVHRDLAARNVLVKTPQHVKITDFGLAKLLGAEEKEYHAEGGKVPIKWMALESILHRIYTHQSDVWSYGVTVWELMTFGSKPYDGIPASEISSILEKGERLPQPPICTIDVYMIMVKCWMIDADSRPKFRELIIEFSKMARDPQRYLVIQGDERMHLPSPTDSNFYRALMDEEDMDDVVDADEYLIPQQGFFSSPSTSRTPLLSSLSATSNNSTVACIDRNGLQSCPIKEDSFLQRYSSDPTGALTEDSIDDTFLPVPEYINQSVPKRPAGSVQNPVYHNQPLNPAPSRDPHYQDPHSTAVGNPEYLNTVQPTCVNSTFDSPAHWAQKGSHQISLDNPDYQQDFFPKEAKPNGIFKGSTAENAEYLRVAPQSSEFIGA
compound,measurement,setting,value
"CN1CCN(c2cccc(Nc3nc4c(-c5ccc(S(C)(=O)=O)cc5)cccn4n3)c2)CC1 [Compound A, [8-(4-Methanesulfonyl-phenyl)-[1,2,4]triazolo[1,5-a]pyridin-2-yl]-[3-(4-methyl-piperazin-1-yl)-phenyl]-amine]",histological protection of the tarsus,[1]; 55 mg/kg,provided protection in the tarsus
same,"histopathology scores, significance versus vehicle","[1]; 55 mg/kg, p<0.05",Significance was only observed for the degree of inflammation
same,histological protection of carpus and tarsus,[1]; 100 mg/kg,provided the best protection for both regions
same,histological protection of the tarsus,[1]; 100 mg/kg,provided protection in the tarsus
same,"histopathology scores, significance versus vehicle","[1]; 100 mg/kg, p<0.01",Significance was only observed for the degree of inflammation
same,drop in mean paw thickness or size compared to vehicle,[2],1.3 fold
same,reduction in total clinical score compared to vehicle,[2],2.4 fold
same,"histopathology parameters (matrix erosions, subchondral osteolysis, osteoproliferation, synovial proliferation, pannus formation, degree of inflammation)",[3],significantly decrease several parameters
same,suppression of paw swelling versus Dex,"[4]; CIA, 100 mg/kg",near identical suppression of paw swelling
same,onset of swelling reduction versus Dex,"[4]; CIA, 100 mg/kg, day 43",more rapid drop in swelling as compared to the Dex treatment group
same,clinical score,[4]; [7],reduction in clinical score in a dose-dependent manner
same,mean paw size,[4]; [7],clear reduction in the mean paw size
same,total body mass,[5],not significantly different from that of vehicle-treated animals
same,activity against EGFR in profiling panel,[6],lacked activity
